Measurements reported in patent US9024018B2, “3-substituted-8-substituted-3H-imidazo[5,1-d][1,2,3,5]tetrazin-4-one compounds and their use” (Pharminox Limited, priority 2009, dated 2015).

Columns and labels:
Type in all cases: cell-based
[1] = system: SNB19V; assay: MTT assay for 7-day toxicity, SNB19V glioma cells (vector control, MGMT-); conditions: Glioma cell, 168 h, 7 day MTT assay, glioma line SNB19V
Protocol: (§1) The cell culture techniques were carried out in a Class II microbiological safety cabinet which was swabbed with 70% IMS in distilled water before each use. Glioma cells were routinely cultured in Costar tissue culture flasks in RPMI 1640 liquid medium (containing 0.3 g/L L-glutamine and 2 g/L sodium bicarbonate) supplemented with 10% heat inactivated FBS (55-59° C.) for 1 hour to denature complement proteins which would otherwise evoke a cellular immune response resulting in cell lysis, 1% non-essential amino acids, 50 μg/mL gentamicin and 400 μg/mL G418 (vector selection reagent). Colorectal and melanoma cells were maintained in RPMI 1640 supplemented with 10% FBS. MRC-5 cells were cultured in EMEM+10% FBS, 1% pen/strep, 1% non-essential amino acids, 1% HEPES (1M) and 1% sodium bicarbonate.
(§2) Cells were grown at 37° C. in a humidified incubator in an atmosphere comprising 95% air/5% CO2. Cells were sub-cultured when growth exceeded approximately 80% confluence, normally twice weekly. The medium was aspirated from the flask and approximately 0.8 mL trypsin-EDTA 1× solution added. The cells were re-incubated at 37° C. until they had visibly detached from the flask. The cells were re-suspended in 5 mL medium and 0.5-1 mL was transferred to a new flask (25 cm^2) with 7 mL culture medium. The cells were further incubated at 37° C. To minimize phenotypic drift, cells were disposed of once they had been subcultured 30 times. New batches of cells were thawed rapidly in 37° C. water bath once taken from liquid nitrogen storage and re-suspended in 10 mL of culture medium in a 25 cm^2 flask. Cells were passaged twice to allow normal growth to resume prior to use in experiments.
(§3) Most test compounds, including temozolomide, were prepared as 100 mM stock solutions in DMSO and stored at −20° C. for not more than 6 months.
(§4) MTT Assay for 7-Day Toxicity Assay
(§5) This assay was first described in Mosmann, T., 1983, “Rapid colorimetric assay for cellular growth and survival: Application to proliferation and cytotoxicity assays”, Journal of Immunological Methods, Vol. 65, Nos. 1-2, pp. 55-63.
(§6) Glioma cell lines, SNB19 and U373, both stably transfected with MGMT (i.e., SNB19M and U373M) or their respective vector controls (i.e., SNB19V and U373V); colorectal carcinoma cell lines, HCT116, HT29, and DLD1; melanoma cell line, SKMEL-28; breast cell line, MCF-7; and normal human fetal lung fibroblast cell line, MRC-5; were used at 60-80% confluence, during the logarithmic phase of growth.
(§7) Following harvesting with trypsin/EDTA, cells in suspension were gently syringed through a 23 gauge needle to obtain a near-single cell suspension. Cells were then seeded into 96-well plates at the desired density in 180 μL culture medium if only one test compound was to be added, or in 160 μL if two test compounds were to be added in combination. Cells were allowed to attach overnight by incubation at 37° C. in 95% air/5% CO2. For the 7 day assay, the cell seeding densities for the different cell lines were as follows: SNB19V, SNB19M: 650 cells/well; U373V, U373M: 650 cells/well; SNB19VR, U373VR: 650 cells/well; HCT116, DLD-1, SKMEL-28, MRC-5, MCF-7: 400 cells/well.
(§8) The two peripheral lanes of each plate were used as blank wells (cell free) and filled with 200 μL of medium in order to minimise medium evaporation from the plate. A separate time zero (T0) plate was set up alongside other plates. Serial dilutions in tissue culture medium of a 100 mM stock of test compound were prepared immediately before each assay to ten times the final concentrations required. 20 μL was added to each well (200 μL total media per well) to achieve final concentrations of 0.5 μM, 1 μM, 5 μM, 10 μM, 50 μM, 100 μM, 500 μM, and 1000 μM. A minimum of four wells received the same test compound concentration. To control wells, including those in the T0 plate, 20 μL of medium was added. […]

[2] = system: SNB19M; assay: MTT assay for 7-day toxicity, SNB19M glioma cells (stably transfected with MGMT, MGMT+); conditions: Glioma cell, 168 h, 7 day MTT assay, glioma line SNB19M
Protocol: as §1, §2, §3, §4, §5, §6, §7, §8

[3] = system: U373V; assay: MTT assay for 7-day toxicity, U373V glioma cells (vector control, MGMT-); conditions: Glioma cell, 168 h, 7 day MTT assay, glioma line U373V
Protocol: as §1, §2, §3, §4, §5, §6, §7, §8

[4] = system: U373M; assay: MTT assay for 7-day toxicity, U373M glioma cells (stably transfected with MGMT, MGMT+); conditions: Glioma cell, 168 h, 7 day MTT assay, glioma line U373M
Protocol: as §1, §2, §3, §4, §5, §6, §7, §8

Cn1nnc2c(-c3nc(-c4ccccc4)c[nH]3)ncn2c1=O [WW-049, 3-Methyl-8-(4-phenyl-1H-imidazol-2-yl)imidazo[5,1-d][1,2,3,5]tetrazin-4(3H)-one]
GI50 [1]: < 45 µM | GI50 [2]: < 70 µM | GI50 [3]: < 75 µM | GI50 [4]: < 60 µM

C#CCn1nnc2c(-c3nc4ccccc4[nH]3)ncn2c1=O [WW-063, 8-(1H-Benzo[d]imidazol-2-yl)-3-(prop-2-ynyl)imidazo[5,1-d][1,2,3,5]tetrazin-4(3H)-one]
GI50 [1]: < 45 µM | GI50 [2]: < 70 µM | GI50 [3]: < 75 µM | GI50 [4]: < 60 µM

C#CCn1nnc2c(-c3nc(-c4ccc(S(C)(=O)=O)cc4)cs3)ncn2c1=O [WW-025]
GI50 [1]: < 45 µM | GI50 [2]: < 70 µM | GI50 [3]: < 75 µM | GI50 [4]: < 60 µM

Cn1cc(-c2ccccc2)nc1-c1ncn2c(=O)n(C)nnc12 [WW-051, 3-Methyl-8-(1-methyl-4-phenyl-1H-imidazol-2-yl)imidazo[5,1-d][1,2,3,5]tetrazin-4(3H)-one]
GI50 [1]: < 45 µM | GI50 [2]: < 70 µM | GI50 [3]: < 75 µM | GI50 [4]: < 60 µM

C#CCn1nnc2c(-c3nc4ccccc4o3)ncn2c1=O [WW-055, 8-(Benzo[d]oxazol-2-yl)-3-(prop-2-ynyl)imidazo[5,1-d][1,2,3,5]tetrazin-4(3H)-one]
GI50 [1]: < 45 µM | GI50 [2]: < 70 µM | GI50 [3]: < 75 µM | GI50 [4]: < 60 µM

COCn1nnc2c(C(=O)Nc3ccccc3)ncn2c1=O [LL-002, 3-(Methoxymethyl)-4-oxo-N-phenyl-3,4-dihydroimidazo[5,1-d][1,2,3,5]tetrazine-8-carboxamide]
GI50 [1]: 55.3 µM | GI50 [2]: 43.8 µM | GI50 [3]: 36.3 µM | GI50 [4]: 52.3 µM

Cn1nnc2c(-c3nc4ccccc4s3)ncn2c1=O [WW-058, 8-(Benzo[d]thiazol-2-yl)-3-methylimidazo[5,1-d][1,2,3,5]tetrazin-4(3H)-one]
GI50 [1]: < 45 µM | GI50 [2]: < 70 µM | GI50 [3]: < 75 µM | GI50 [4]: < 60 µM

Cn1nnc2c(C(N)=O)ncn2c1=O [TMZ, temozolomide, reference compound]
GI50 [1]: 45.6 µM | GI50 [2]: 526 µM | GI50 [3]: 72.9 µM | GI50 [4]: 395 µM

Cn1nnc2c(-c3nc(C(N)=O)cs3)ncn2c1=O [WW-007, 2-(3-Methyl-4-oxo-3,4-dihydroimidazo[5,1-d][1,2,3, 5]tetrazin-8-yl)thiazole-4-carboxamide]
GI50 [1]: < 45 µM | GI50 [2]: < 70 µM | GI50 [3]: < 75 µM | GI50 [4]: < 60 µM

Cn1nnc2c(-c3nc(-c4ccc(F)cc4)cs3)ncn2c1=O [WW-001, 8-(4-(4-Fluorophenyl)thiazol-2-yl)-3-methylimidazo[5,1-d][1,2,3,5]tetrazin-4(3H)-one]
GI50 [1]: < 45 µM | GI50 [2]: < 70 µM | GI50 [3]: < 75 µM | GI50 [4]: < 60 µM

C#CCNC(=O)c1csc(-c2ncn3c(=O)n(C)nnc23)n1 [WW-005, 2-(3-Methyl-4-oxo-3,4-dihydroimidazo[5,1-d][1,2,3,5]tetrazin-8-yl)-N-(prop-2-ynyl)thiazole-4-carboxamide]
GI50 [1]: < 45 µM | GI50 [2]: < 70 µM | GI50 [3]: < 75 µM | GI50 [4]: < 60 µM

C#CCn1nnc2c(-c3nc(-c4ccc5c(c4)OCO5)cs3)ncn2c1=O [WW-026]
GI50 [1]: < 45 µM | GI50 [2]: < 70 µM | GI50 [3]: < 75 µM | GI50 [4]: < 60 µM

C#CCn1nnc2c(-c3nnc(-c4ccccc4)o3)ncn2c1=O [WW-042, 8-(5-Phenyl-1,3,4-oxadiazol-2-yl)-3-(prop-2-ynyl)imidazo[5,1-d][1,2,3,5]tetrazin-4(3H)-one]
GI50 [1]: < 45 µM | GI50 [2]: < 70 µM | GI50 [3]: < 75 µM | GI50 [4]: < 60 µM

C#CCn1nnc2c(-c3nc(-c4ccsc4)cs3)ncn2c1=O [WW-024, 3-(Prop-2-ynyl)-8-(4-(thiophen-3-yl)thiazol-2-yl)imidazo[5,1-d][1,2,3,5]tetrazin-4(3H)-one]
GI50 [1]: < 45 µM | GI50 [2]: < 70 µM | GI50 [3]: < 75 µM | GI50 [4]: < 60 µM

C#CCn1nnc2c(-c3nc(-c4cccc(Cl)c4)cs3)ncn2c1=O [WW-023, 8-(4-(3-Chlorophenyl)thiazol-2-yl)-3-(prop-2-ynyl)imidazo[5,1-d][1,2,3,5]tetrazin-4(3H)-one]
GI50 [1]: < 45 µM | GI50 [2]: < 70 µM | GI50 [3]: < 75 µM | GI50 [4]: < 60 µM

CCc1csc(-c2ncn3c(=O)n(C)nnc23)n1 [WW-003, 8-(4-Ethylthiazol-2-yl)-3-methylimidazo[5,1-d][1,2,3,5]tetrazin-4(3H)-one]
GI50 [1]: < 45 µM | GI50 [2]: < 70 µM | GI50 [3]: < 75 µM | GI50 [4]: < 60 µM

Cn1nnc2c(-c3ncc[nH]3)ncn2c1=O [WW-047, 8-(1H-Imidazol-2-yl)-3-methylimidazo[5,1-d][1,2,3,5]tetrazin-4(3H)-one]
GI50 [1]: < 45 µM | GI50 [2]: < 70 µM | GI50 [3]: < 75 µM | GI50 [4]: < 60 µM

C[S+]([O-])Cn1nnc2c(-c3nc(-c4ccsc4)cs3)ncn2c1=O (stereo not drawn) [WW-033, 3-(methylsulfinylmethyl)-8-(4-(thiophen-3-yl)thiazol-2-yl)imidazo[5,1-d][1,2,3,5]tetrazin-4(3H)-one]
GI50 [1]: < 45 µM | GI50 [2]: < 70 µM | GI50 [3]: < 75 µM | GI50 [4]: < 60 µM
